Consider three molecules from patent publication US6669945B1, “Universal T-cell epitopes for anti-malarial vaccines” (New York University, priority 1997, dated 2003).

Where two headings read alike, the source gives them in different places. Where no end group is shown, it is not given here. The star is where a group is joined. Biotin = O=C1N[C@H]2[C@H](CS[C@H]2CCCCC(=O)*)N1

For assay [1], the target named is T1, DQ 9 (DQA1*0201/DQB1*0303) (Homo sapiens, UniProt P01909+P01920, A45G/C70K/E183D/E77G/F237L/F77L/G63E/H199R/I129T/K197E/L178F/L74F/Q57E/Q76R/R75H/S185I/S97I/T217I/V73L/Y48F/Y58L).
T1 construct: made in house; host or cells: insect cells, baculovirus expression system
In words: Peptide competition assay, soluble DQ molecules. It is filed as binding. As to conditions: soluble DQ 9 (FIG. 3A).

Assay [2] concerns the target DQ 7 (DQA1*0501/DQB1*0301) (Homo sapiens, UniProt P01909+P01920). In words: Peptide competition assay, soluble DQ molecules. It is filed as binding. The conditions noted are these: soluble DQ 7 (FIG. 3B).
The target of the next assay is T2, DR 4 (DRB1*0401) (Homo sapiens, UniProt P01903+P01911, A100K/A169T/F76Y/I96L/K127E/L162R/M171V/N62H/P40V/Q125Y/R42H/S133A/S149N/S66Y/V115G/V209L/W38E).
T2 construct: The class II molecules in the cell extracts were purified by immunoaffnity; endogenous in cells
Briefly: biochemical. It is filed as binding.

Another assay addresses T3, DR 2 (DRB5*0101) (Homo sapiens, UniProt P01903+Q30154).
T3 construct: expressed in transfected cells; host or cells: L cell transfectant L416.3
In words: biochemical. As to conditions: DR 2 DRB5*0101, biotinyl-peptide MBP; read-out: Competitor Peptide IC50. It is filed as binding.

In the next assay the target is DR 13 (DRB1*1301) (Homo sapiens, UniProt P01903+P01911, A100E/A169T/K41T/L162R/M171V/P40S/Q125H/Q178H/Q39Y/Q99D/R42S/S66N/T262R/W38E/Y61H). In words: biochemical. As to conditions: soluble DR 13, indicator GFK(A)7 (FIG. 2B); read-out: IC50, inhibition of binding of biotinylated GFK(A)7.
In another assay the target is DR 8 (DRB1*0801) (Homo sapiens, UniProt P01903+P01911, A100R/A103L/A169T/D86S/F76Y/H45Y/I96F/K41T/L162R/M171V/P40S/Q125H/Q178H/Q39Y/Q99D/R218S/R42G/S66Y/V115G/W38E). In words: biochemical. It is filed as binding. The conditions noted are these: DR 8 DRB1*0801, biotinyl-peptide GYR(A)6L; read-out: Competitor Peptide IC50.
The next assay has as its target DR 11 (5) (DRB1*1101) (Homo sapiens, UniProt P01903+P01911, A100R/A169T/A87E/I96F/K41T/L162R/M171V/P40S/Q125H/Q178H/Q39Y/Q99D/R42S/S66Y/T262R/V115G/W38E). In words: biochemical. It is filed as binding. The conditions noted are these: DR 11 (5) DRB1*1101, biotinyl-peptide TT831-843; read-out: Competitor Peptide IC50.
The target of a further assay is DR 7 (DRB1*0701) (Homo sapiens, UniProt P01903+P01911, A100R/A102G/A103Q/D57E/D86V/E43K/F76Y/K127E/L162R/M171V/P40G/Q125H/Q99D/R33Q/R42Y/R54Q/S133A/S66F/T210M/V115G/Y107V/Y59L/Y89S). In words: biochemical. It is filed as binding. The conditions noted are these: DR 7 DRB1*0701, biotinyl-peptide GFK(A)7, pH 5; read-out: Competitor Peptide IC50.
The next assay concerns the target T4, DR 1 (DRB1*0101) (Homo sapiens, UniProt P01903+P01911, A100R/D57E/F55L/F60I/F76Y/I96L/L162R/M171V/P40L/Q125E/R42F/V115G/Y59C).
T4 construct: The class II molecules in the cell extracts were purified by immunoaffnity; endogenous in cells
In words: biochemical. It is filed as binding. As to conditions: DR 1 DRB1*0101, biotinyl-peptide GFK(A)7; read-out: Competitor Peptide IC50.

In another assay the target is T5, DR 3 (DRB1*0301) (Homo sapiens, UniProt P01903+P01911, A100K/A102G/A103R/A169T/F55Y/I96L/K41T/L162R/M171V/P40S/Q125H/Q178H/Q39Y/R42S/S66N/T106N/T262R/W38E/Y61H).
T5 construct: The class II molecules in the cell extracts were purified by immunoaffnity; endogenous in cells
In words: biochemical. It is filed as binding. As to conditions: DR 3 DRB1*0301, biotinyl-peptide IAYD(A)5; read-out: Competitor Peptide IC50.

Assay [3] relates to EBV-B cell line 9065 (DRB1*1301/DQB1*0603). Briefly: Flow cytometry binding of biotinylated peptides to EBV-B cells. More on the design: species or system human. As to conditions: biotinylated peptide, EBV-B 9065 cells. On the procedure: For flow cytometry, EBV-B cells or L cells (2×10^5 cells), were incubated with an equal volume (100 μl) of biotinylated peptide (200 μg/ml) in each well of a U-bottomed 96-well plate. Following a 4-hour incubation on ice with gentle agitation, the unbound peptides were removed by washing. To increase the sensitivity of the fluorescent signal, two layers of FITC-Avidin were used to label the cells by incubating first with FITC-Avidin D, followed by biotinylated anti-Avidin D and again FITC-Avidin DCS (Vetor, Burlingame Calif.). Propidium Iodide (2.8 μg/ml) was added prior to FACS analysis to allow gating on viable cells.
For orientation: In flow cytometry, cells or beads pass a laser one at a time.

The IC50 is the concentration at which inhibition is half-maximal. With `CSCC[C@H](NC(=O)[C@H](CCCNC(=N)N)NC(=O)[C@H](CCSC)NC(=O)[C@H](CCCCN)NC(=O)[C@H](CO)NC(=O)[C@@H](NC(=O)[C@@H]1CCCN1C(=O)[C@H](CCCCN)NC(=O)[C@@H]1CCCN1C(=O)[C@@H]1CCCN1C(=O)[C@@H](N)CCCCN)C(C)C)C(=O)N[C@@H](C)C(=O)N[C@H](C(=O)N1CCC[C@H]1C(=O)N[C@@H](CC(C)C)C(=O)N[C@@H](CC(C)C)C(=O)N[C@@H](CCSC)C(=O)N[C@@H](CCC(N)=O)C(=O)N[C@@H](C)C(=O)O)[C@@H](C)O` [CLIP83-101], the IC50 in assay [1] and in assay [2] was 0.5 µM throughout.
As to `CC(C)[C@H](NC(=O)[C@H](CC(N)=O)NC(=O)[C@@H]1CCCN1C(=O)[C@H](CC(N)=O)NC(=O)[C@H](C)NC(=O)[C@H](CC(N)=O)NC(=O)[C@@H]1CCCN1C(=O)[C@H](CC(=O)O)NC(=O)[C@@H](NC(=O)[C@H](CC(N)=O)NC(=O)[C@@H]1CCCN1C(=O)[C@H](CC(N)=O)NC(=O)[C@H](C)NC(=O)[C@H](CC(N)=O)NC(=O)[C@@H]1CCCN1C(=O)[C@@H](N)CC(=O)O)C(C)C)C(=O)O` [T1], the IC50 at DR 4 (DRB1*0401) (DR 4 DRB1*0401, biotinyl-peptide UD4, read-out: Competitor Peptide IC50) is above 100 µM; on DR 4 (DRB1*0401) (soluble DR 4, indicator GFK(A)7 (FIG. 2A), read-out: IC50, inhibition of binding of biotinylated GFK(A)7), above 100 µM; on DR 2 (DRB5*0101) it was above 100 µM; at DR 13 (DRB1*1301), above 100 µM; at DR 8 (DRB1*0801) it was above 100 µM; on DR 11 (5) (DRB1*1101), above 100 µM. In addition, the IC50 at DR 7 (DRB1*0701), at DR 1 (DRB1*0101) and on DR 3 (DRB1*0301) was above 100 µM in each case.
As to “Biotinyl-T1: NH2 terminal biotinylated T1 peptide (Biotin-DPNANPNVDPNANPNV)”, in assay [3], the MFC entry is listed as “could not be detected”.
